Measured values taken from PubChem BioAssay AID2060901 (Molecular Pharmacology Branch, DTP, NCI, 2025).

Test system: 422866-222-R5-J1-PDC complex spheroids viability
Test: Anticancer human tumor 422866-222-R5-J1-PDC patient-derived pancreatic adenocarcinoma cell line growth inhibition [RAS]
Details: for IC50: curve of first compound; for viability, T/C: stronger effect = lower value
Outline: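 Tumour cells grown as complex spheroids with HUVEC endothelial cells and mesenchymal stem cells, treated with RAS pathway inhibitor combinations. Each agent spans half-log steps from near clinical Cmax, or 10 microM where Cmax is unknown.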
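Note: spheroids exposed to compounds for 7 days.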
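Throughout, for viability, T/C: 100% = DMSO vehicle control viability.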

What does the source list for `Cc1nc(N2CCC3(CC2)COC(C)C3N)c(CO)nc1Sc1ccnc(N)c1Cl` (centres undefined) + C#Cc1c(F)ccc2cc(O)cc(-c3ncc4c(N5CC6CCC(C5)N6)nc(OCC56CCCN5CC(F)C6)nc4c3F)c12?
IC50 (second compound 0.0316 µM): 328 nM; IC50 (second compound 0.1 µM): 126 nM; IC50 (second compound 0.316 µM): 61.6 nM; IC50 (second compound 1 µM): < 31.6 nM; IC50 (second compound 3.16 µM): < 31.6 nM; IC50 (second compound 10 µM): < 31.6 nM; viability, T/C (second compound 0.0316 µM, first compound 0.0316 µM): 74.7%; viability, T/C (second compound 0.0316 µM, first compound 0.1 µM): 65.3%; viability, T/C (second compound 0.0316 µM, first compound 0.316 µM): 49.2%; viability, T/C (second compound 0.0316 µM, first compound 1 µM): 42.2%; viability, T/C (second compound 0.0316 µM, first compound 3.16 µM): 39.6%; viability, T/C (second compound 0.0316 µM, first compound 10 µM): 35.9%; viability, T/C (second compound 0.1 µM, first compound 0.0316 µM): 80.5%; viability, T/C (second compound 0.1 µM, first compound 0.1 µM): 52.5%; viability, T/C (second compound 0.1 µM, first compound 0.316 µM): 38.9%; viability, T/C (second compound 0.1 µM, first compound 1 µM): 36.8%; viability, T/C (second compound 0.1 µM, first compound 3.16 µM): 34.8%; viability, T/C (second compound 0.1 µM, first compound 10 µM): 30.5%; viability, T/C (second compound 0.316 µM, first compound 0.0316 µM): 62.4%; viability, T/C (second compound 0.316 µM, first compound 0.1 µM): 40.5%; viability, T/C (second compound 0.316 µM, first compound 0.316 µM): 33.2%; viability, T/C (second compound 0.316 µM, first compound 1 µM): 30.3%; viability, T/C (second compound 0.316 µM, first compound 3.16 µM): 29.9%; viability, T/C (second compound 0.316 µM, first compound 10 µM): 26.7%; viability, T/C (second compound 1 µM, first compound 0.0316 µM): 37.6%; viability, T/C (second compound 1 µM, first compound 0.1 µM): 46.7%; viability, T/C (second compound 1 µM, first compound 0.316 µM): 24.3%; viability, T/C (second compound 1 µM, first compound 1 µM): 22%; viability, T/C (second compound 1 µM, first compound 3.16 µM): 24.5%; viability, T/C (second compound 1 µM, first compound 10 µM): 20.9%; viability, T/C (second compound 3.16 µM, first compound 0.0316 µM): 24.5%; viability, T/C (second compound 3.16 µM, first compound 0.1 µM): 23.1%; viability, T/C (second compound 3.16 µM, first compound 0.316 µM): 20.3%; viability, T/C (second compound 3.16 µM, first compound 1 µM): 16.5%; viability, T/C (second compound 3.16 µM, first compound 3.16 µM): 18%; viability, T/C (second compound 3.16 µM, first compound 10 µM): 18.3%; viability, T/C (second compound 10 µM, first compound 0.0316 µM): 16.5%; viability, T/C (second compound 10 µM, first compound 0.1 µM): 19.6%; viability, T/C (second compound 10 µM, first compound 0.316 µM): 18%; viability, T/C (second compound 10 µM, first compound 1 µM): 14.8%; viability, T/C (second compound 10 µM, first compound 3.16 µM): 15%; viability, T/C (second compound 10 µM, first compound 10 µM): 16.3%

Which viability, T/C (compound 0.1 µM) does the source give for `Cc1nc(N2CCC3(CC2)COC(C)C3N)c(CO)nc1Sc1ccnc(N)c1Cl` (centres undefined) here?
The viability, T/C was 65% [middle of 4 runs].

And the viability, T/C (compound 0.316 µM)?
The viability, T/C was 51% [middle of 4 runs].

What about the viability, T/C (compound 1 µM) of the same compound?
Its viability, T/C is 52.8% [middle of 4 runs].

And the viability, T/C (compound 3.16 µM)?
The viability, T/C was 41.1% [middle of 4 runs].

And the viability, T/C (compound 10 µM)?
Its viability, T/C is 43.5% [middle of 4 runs].

`CCc1c2c(nc3ccc(O)cc13)-c1cc3c(c(=O)n1C2)COC(=O)[C@]3(O)CC` + CCn1c(-c2cc(N3CCN(C)CC3)cnc2C(C)OC)c2c3cc(ccc31)-c1csc(n1)CC(NC(=O)C1CC1C)C(=O)N1CCCC(N1)C(=O)OCC(C)(C)C2 was tested. Which IC50 (second compound 0.000949 µM) did it give?
Its IC50 is less than 0.949 nM.

What about the IC50 (second compound 0.003 µM) of the same compound?
Its IC50 is less than 0.949 nM.

What about the IC50 (second compound 0.00949 µM) of the same compound?
Its IC50 is less than 0.949 nM.

And the IC50 (second compound 0.03 µM)?
The IC50 was less than 0.949 nM.

What about the IC50 (second compound 0.0949 µM) of the same compound?
Its IC50 is less than 0.949 nM.

What about the IC50 (second compound 0.3 µM) of the same compound?
The IC50 was less than 0.949 nM.

And the viability, T/C (second compound 0.000949 µM, first compound 0.000949 µM)?
Its viability, T/C is 25.3%.

What about the viability, T/C (second compound 0.000949 µM, first compound 0.003 µM) of the same compound?
Its viability, T/C is 20.3%.

What about the viability, T/C (second compound 0.000949 µM, first compound 0.00949 µM) of the same compound?
Its viability, T/C is 21.6%.

And the viability, T/C (second compound 0.000949 µM, first compound 0.03 µM)?
The viability, T/C was 19.5%.

What about the viability, T/C (second compound 0.000949 µM, first compound 0.0949 µM) of the same compound?
Its viability, T/C is 17.7%.

What about the viability, T/C (second compound 0.000949 µM, first compound 0.3 µM) of the same compound?
The viability, T/C was 12.6%.

And the viability, T/C (second compound 0.003 µM, first compound 0.000949 µM)?
Its viability, T/C is 22.5%.

What about the viability, T/C (second compound 0.003 µM, first compound 0.003 µM) of the same compound?
Its viability, T/C is 17%.

And the viability, T/C (second compound 0.003 µM, first compound 0.00949 µM)?
The viability, T/C was 15.4%.

What about the viability, T/C (second compound 0.003 µM, first compound 0.03 µM) of the same compound?
The viability, T/C was 16.7%.

What about the viability, T/C (second compound 0.003 µM, first compound 0.0949 µM) of the same compound?
The viability, T/C was 14.1%.

And the viability, T/C (second compound 0.003 µM, first compound 0.3 µM)?
Its viability, T/C is 8.32%.

And the viability, T/C (second compound 0.00949 µM, first compound 0.000949 µM)?
Its viability, T/C is 18.9%.

What about the viability, T/C (second compound 0.00949 µM, first compound 0.003 µM) of the same compound?
Its viability, T/C is 14.7%.

What about the viability, T/C (second compound 0.00949 µM, first compound 0.00949 µM) of the same compound?
The viability, T/C was 13.8%.

And the viability, T/C (second compound 0.00949 µM, first compound 0.03 µM)?
The viability, T/C was 13.2%.

What about the viability, T/C (second compound 0.00949 µM, first compound 0.0949 µM) of the same compound?
The viability, T/C was 11.3%.

And the viability, T/C (second compound 0.00949 µM, first compound 0.3 µM)?
Its viability, T/C is 7.61%.

What about the viability, T/C (second compound 0.03 µM, first compound 0.000949 µM) of the same compound?
Its viability, T/C is 16.6%.

What about the viability, T/C (second compound 0.03 µM, first compound 0.003 µM) of the same compound?
The viability, T/C was 15.6%.

And the viability, T/C (second compound 0.03 µM, first compound 0.00949 µM)?
The viability, T/C was 14.6%.

And the viability, T/C (second compound 0.03 µM, first compound 0.03 µM)?
Its viability, T/C is 12.8%.

What about the viability, T/C (second compound 0.03 µM, first compound 0.0949 µM) of the same compound?
Its viability, T/C is 10%.

And the viability, T/C (second compound 0.03 µM, first compound 0.3 µM)?
The viability, T/C was 6.17%.

What about the viability, T/C (second compound 0.0949 µM, first compound 0.000949 µM) of the same compound?
Its viability, T/C is 17%.

And the viability, T/C (second compound 0.0949 µM, first compound 0.003 µM)?
Its viability, T/C is 15%.

What about the viability, T/C (second compound 0.0949 µM, first compound 0.00949 µM) of the same compound?
Its viability, T/C is 13.8%.

What about the viability, T/C (second compound 0.0949 µM, first compound 0.03 µM) of the same compound?
Its viability, T/C is 12.5%.

What about the viability, T/C (second compound 0.0949 µM, first compound 0.0949 µM) of the same compound?
The viability, T/C was 9.66%.

What about the viability, T/C (second compound 0.0949 µM, first compound 0.3 µM) of the same compound?
Its viability, T/C is 6.78%.

What about the viability, T/C (second compound 0.3 µM, first compound 0.000949 µM) of the same compound?
Its viability, T/C is 16.2%.

What about the viability, T/C (second compound 0.3 µM, first compound 0.003 µM) of the same compound?
The viability, T/C was 15.7%.

And the viability, T/C (second compound 0.3 µM, first compound 0.00949 µM)?
Its viability, T/C is 16.8%.

And the viability, T/C (second compound 0.3 µM, first compound 0.03 µM)?
Its viability, T/C is 12.8%.

And the viability, T/C (second compound 0.3 µM, first compound 0.0949 µM)?
Its viability, T/C is 10.1%.

What about the viability, T/C (second compound 0.3 µM, first compound 0.3 µM) of the same compound?
The viability, T/C was 5.7%.
